{
  "source": "paper PMC4742234",
  "about": "“Screening of Drug Metabolizing Enzymes for the Ginsenoside Compound K In Vitro: An Efficient Anti-Cancer Substance Originating from Panax Ginseng” (PLoS ONE, 2016)",
  "key": {"CYP2E1": {"biological_target": "T1, CYP2E1 (Homo sapiens, UniProt P05181)", "T1 construct": "tissue Cypex Ltd. (U.K.); host or cells: pooled human liver microsomes", "T1 sequence (P05181 whole entry, canonical isoform)": "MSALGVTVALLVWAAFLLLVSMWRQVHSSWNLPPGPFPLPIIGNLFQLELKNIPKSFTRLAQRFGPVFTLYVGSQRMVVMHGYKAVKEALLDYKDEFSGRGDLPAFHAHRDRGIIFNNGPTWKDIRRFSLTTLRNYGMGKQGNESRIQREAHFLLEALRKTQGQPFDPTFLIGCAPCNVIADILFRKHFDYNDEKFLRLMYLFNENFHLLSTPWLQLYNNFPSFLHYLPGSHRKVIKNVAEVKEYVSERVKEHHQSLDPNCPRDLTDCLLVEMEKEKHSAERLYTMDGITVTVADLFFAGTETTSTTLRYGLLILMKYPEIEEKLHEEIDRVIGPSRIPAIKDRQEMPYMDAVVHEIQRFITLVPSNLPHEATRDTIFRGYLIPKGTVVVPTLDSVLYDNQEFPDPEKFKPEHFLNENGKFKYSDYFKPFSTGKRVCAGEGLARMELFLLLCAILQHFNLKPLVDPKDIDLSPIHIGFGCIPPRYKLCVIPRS", "assay": "Inhibition of CYP2E1 (chlorzoxazone 6-hydroxylation) by CK in HLMs", "type": "in vitro ADME", "method": "The method was conducted according to our previous study with some modifications. The CYP isoform-specific probe reactions used were phenacetin O-deethylation (for CYP1A2), coumarin 7-hydroxylation (for CYP2A6), tolbutamide 4-hydroxylation (for CYP2C9), metoprolol α-hydroxylation (for CYP2D6), chlorzoxazone 6-hydroxylation (for CYP2E1),S-Mephenytoin 4-hydroxylation (for CYP2C19), and midazolam 1-hydroxylation (for CYP3A4). The kinetic study of CK was conducted with HLMs. A 0.2 mL incubation mixture that consisted of CK (as a substrate), the HLMs (0.5 mg/mL) or CYP isoforms (10 pmol), and 0.1 M sodium phosphate buffer (pH 7.4) was pre-warmed for 5 min at 37°C. The reaction was initiated by the addition of 1 mg/mL triphosphopyridine nucleotide (NADPH). All the reagents were dissolved in methanol, and the final solvent concentration in all incubations (including the controls) was 1%. The final incubations were performed in a shaking water bath (37°C) for 30 min. The reactions were stopped by adding 0.2 mL ice-cold acetonitrile, which contains irbesartan (114.9 ng/mL) as the internal standard. The samples were vortexed for 5 min. After centrifugation (12000×g for 10 min), the supernatants were transferred, and aliquots of 20 μL were injected into the HPLC-MS/MS system for analysis.\nCK (10–100 μM) and a single CYP isoform-specific substrate (with a concentration similar to its corresponding Kmvalue) were used to determine the inhibitory effect of CK on specific CYP isoforms as described in detail previously. Substrates including phenacetin, coumarin, tolbutamide, metoprolol, chlorzoxazone, S-Mephenytoin, and midazolam were used at concentrations of 10, 5, 100, 7.5, 40, 100, and 5 μM, respectively. All incubation conditions were the same as mentioned above. The inhibitory effects on the CYP isoforms were investigated individually by incubating the HLMs in the absence or presence of CK. […]"}, "CYP3A4": {"biological_target": "CYP3A4 (Homo sapiens, UniProt P08684)", "sequence (P08684 whole entry, canonical isoform)": "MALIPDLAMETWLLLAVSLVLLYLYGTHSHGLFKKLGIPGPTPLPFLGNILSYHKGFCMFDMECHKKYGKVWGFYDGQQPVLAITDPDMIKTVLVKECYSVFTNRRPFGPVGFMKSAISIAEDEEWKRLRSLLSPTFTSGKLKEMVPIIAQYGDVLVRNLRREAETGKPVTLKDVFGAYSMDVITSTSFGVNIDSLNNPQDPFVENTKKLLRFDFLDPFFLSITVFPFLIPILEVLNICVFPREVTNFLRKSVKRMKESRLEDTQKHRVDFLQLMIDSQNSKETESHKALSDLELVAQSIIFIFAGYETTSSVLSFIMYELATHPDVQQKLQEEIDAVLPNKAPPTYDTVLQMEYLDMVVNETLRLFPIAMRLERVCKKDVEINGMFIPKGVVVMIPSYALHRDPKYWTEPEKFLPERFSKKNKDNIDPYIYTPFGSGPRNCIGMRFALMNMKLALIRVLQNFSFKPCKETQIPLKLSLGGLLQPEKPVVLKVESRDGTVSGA", "assay": "Kinetic analysis of CK metabolism by recombinant CYP3A4", "type": "in vitro ADME", "set-up": "purchased Cypex Ltd. (U.K.)", "details": "recombinant CYP3A4 10 pmol, CK 10–100 μM", "method": "The method was conducted according to our previous study with some modifications. The CYP isoform-specific probe reactions used were phenacetin O-deethylation (for CYP1A2), coumarin 7-hydroxylation (for CYP2A6), tolbutamide 4-hydroxylation (for CYP2C9), metoprolol α-hydroxylation (for CYP2D6), chlorzoxazone 6-hydroxylation (for CYP2E1),S-Mephenytoin 4-hydroxylation (for CYP2C19), and midazolam 1-hydroxylation (for CYP3A4). The kinetic study of CK was conducted with HLMs. A 0.2 mL incubation mixture that consisted of CK (as a substrate), the HLMs (0.5 mg/mL) or CYP isoforms (10 pmol), and 0.1 M sodium phosphate buffer (pH 7.4) was pre-warmed for 5 min at 37°C. The reaction was initiated by the addition of 1 mg/mL triphosphopyridine nucleotide (NADPH). […]\nThe kinetic parameters for the metabolism of CK were determined by incubating increasing concentrations of CK (10–100 μM) at 37°C with the HLMs and NADPH under the incubation conditions as described in detail previously. The equation of CK reaction velocity (V) in the HLMs or CYP isoforms is expressed as V = (C0–Ct)/T/Cp, where C0and Ct are the initial and final concentrations of CK in the incubation solution, respectively, T is the incubation time (min), and Cp is the protein concentration (mg/mL or nmol). All values were expressed as the mean±standard deviation (SD). […]"}},
  "note": "pIC50: −log10 of the molar value. “And” between values parts separate entries of the source, which are not always exact repeats. Identical values can stand only once. “Also recorded” adds a separate entry of the source.",
  "data": [
    {"smiles": "CC(C)=CCC[C@](C)(OC1O[C@H](CO)[C@@H](O)[C@H](O)[C@H]1O)[C@H]1CC[C@]2(C)[C@@H]1[C@H](O)C[C@@H]1[C@@]3(C)CC[C@H](O)C(C)(C)[C@@H]3CC[C@]12C", "note": "(stereo partly drawn) [CK, 20-O-β-(D-glucopyranosyl)-20(S)-protopanaxadiol]", "values": [
      {"measurement": "inhibitory effect on the activity of CYP2E1", "setting": "CYP2E1; HLMs, CK 10–100 μM", "result": "minimal; also recorded: negligible"},
      {"measurement": "pIC50", "setting": "CYP2E1; HLMs, chlorzoxazone 40 μM, CK 10–100 μM", "result": "< 4.00"},
      {"measurement": "inhibitor potency class for CYP2E1", "setting": "CYP2E1; classified by IC50 according to Kong et al", "result": "weak (weak, if IC50≥100 μg/mL or ≥50 μM)"},
      {"measurement": "Vmax of CK metabolism", "setting": "CYP3A4", "result": "0.68±0.04 nmol/nmol P450/min and 0.6756 nmol/nmol P450/min"}
    ]}
  ]
}
